Assay results from ChEMBL document CHEMBL3045986, “Antifungal activity of prenylated flavonoids isolated from Tephrosia apollinea L. against four phytopathogenic fungi” (2013).
Converted amounts (≈) assume the structure as drawn.

Experiments:
Assay type in all cases: functional
Colletotrichum acutatum [1] = assay: Antifungal activity against Colletotrichum acutatum assessed as growth inhibition at 25 degC after 48 hr by two-fold broth macrodilution method
Pestalotiopsis sp. [2] = assay: Antifungal activity against Pestalotiopsis sp. assessed as growth inhibition at 1 mg/ml at 25 degC by agar well diffusion bioassay; conditions: read-out: GI
Colletotrichum acutatum [3] = assay: Antifungal activity against Colletotrichum acutatum assessed as growth inhibition at 4 mg/ml at 25 degC by agar well diffusion bioassay; conditions: read-out: GI
Alternaria alternata [4] = assay: Antifungal activity against Alternaria alternata assessed as growth inhibition at 25 degC after 48 hr by two-fold broth macrodilution method
Alternaria alternata [5] = assay: Antifungal activity against Alternaria alternata assessed as growth inhibition at 1 mg/ml at 25 degC by agar well diffusion bioassay; conditions: read-out: GI
Pestalotiopsis sp. [6] = assay: Antifungal activity against Pestalotiopsis sp. assessed as growth inhibition at 25 degC after 48 hr by two-fold broth macrodilution method
Colletotrichum acutatum [7] = assay: Antifungal activity against Colletotrichum acutatum assessed as growth inhibition at 2 mg/ml at 25 degC by agar well diffusion bioassay; conditions: read-out: GI
Alternaria alternata [8] = assay: Antifungal activity against Alternaria alternata assessed as growth inhibition at 3 mg/ml at 25 degC by agar well diffusion bioassay; conditions: read-out: GI
Pestalotiopsis sp. [9] = assay: Antifungal activity against Pestalotiopsis sp. assessed as growth inhibition at 3 mg/ml at 25 degC by agar well diffusion bioassay; conditions: read-out: GI
Pestalotiopsis sp. [10] = assay: Antifungal activity against Pestalotiopsis sp. assessed as growth inhibition at 2 mg/ml at 25 degC by agar well diffusion bioassay; conditions: read-out: GI
Helminthosporium [11] = assay: Antifungal activity against Helminthosporium sp. assessed as growth inhibition at 2 mg/ml at 25 degC by agar well diffusion bioassay; conditions: read-out: GI
Helminthosporium [12] = assay: Antifungal activity against Helminthosporium sp. assessed as growth inhibition at 1 mg/ml at 25 degC by agar well diffusion bioassay; conditions: read-out: GI
Alternaria alternata [13] = assay: Antifungal activity against Alternaria alternata assessed as growth inhibition at 2 mg/ml at 25 degC by agar well diffusion bioassay; conditions: read-out: GI
Pestalotiopsis sp. [14] = assay: Antifungal activity against Pestalotiopsis sp. assessed as growth inhibition at 4 mg/ml at 25 degC by agar well diffusion bioassay; conditions: read-out: GI
Alternaria alternata [15] = assay: Antifungal activity against Alternaria alternata assessed as growth inhibition at 4 mg/ml at 25 degC by agar well diffusion bioassay; conditions: read-out: GI
Helminthosporium [16] = assay: Antifungal activity against Helminthosporium sp. assessed as growth inhibition at 4 mg/ml at 25 degC by agar well diffusion bioassay; conditions: read-out: GI
Colletotrichum acutatum [17] = assay: Antifungal activity against Colletotrichum acutatum assessed as growth inhibition at 1 mg/ml at 25 degC by agar well diffusion bioassay; conditions: read-out: GI
Colletotrichum acutatum [18] = assay: Antifungal activity against Colletotrichum acutatum assessed as growth inhibition at 3 mg/ml at 25 degC by agar well diffusion bioassay; conditions: read-out: GI
Helminthosporium [19] = assay: Antifungal activity against Helminthosporium sp. assessed as growth inhibition at 25 degC after 48 hr by two-fold broth macrodilution method
Helminthosporium [20] = assay: Antifungal activity against Helminthosporium sp. assessed as growth inhibition at 3 mg/ml at 25 degC by agar well diffusion bioassay; conditions: read-out: GI

Row | SMILES | MIC (Colletotrichum acutatum [1]) [mg/L] | inhibition of growth at 1000 µg/mL (Pestalotiopsis sp. [2]) [%] | inhibition of growth at 4000 µg/mL (Colletotrichum acutatum [3]) [%] | MIC (Alternaria alternata [4]) [mg/L] | inhibition of growth at 1000 µg/mL (Alternaria alternata [5]) [%] | MIC (Pestalotiopsis sp. [6]) [mg/L] | inhibition of growth at 2000 µg/mL (Colletotrichum acutatum [7]) [%] | inhibition of growth at 3000 µg/mL (Alternaria alternata [8]) [%] | inhibition of growth at 3000 µg/mL (Pestalotiopsis sp. [9]) [%] | inhibition of growth at 2000 µg/mL (Pestalotiopsis sp. [10]) [%] | inhibition of growth at 2000 µg/mL (Helminthosporium [11]) [%] | inhibition of growth at 1000 µg/mL (Helminthosporium [12]) [%] | inhibition of growth at 2000 µg/mL (Alternaria alternata [13]) [%] | inhibition of growth at 4000 µg/mL (Pestalotiopsis sp. [14]) [%] | inhibition of growth at 4000 µg/mL (Alternaria alternata [15]) [%] | inhibition of growth at 4000 µg/mL (Helminthosporium [16]) [%] | inhibition of growth at 1000 µg/mL (Colletotrichum acutatum [17]) [%] | inhibition of growth at 3000 µg/mL (Colletotrichum acutatum [18]) [%] | MIC (Helminthosporium [19]) [mg/L] | inhibition of growth at 3000 µg/mL (Helminthosporium [20]) [%]
1 | CC(=O)O[C@@H]1C(C)(C)OC(=O)[C@]12COc1ccc3c(=O)cc(-c4ccccc4)oc3c12 [(+)-GLABRATEPHRIN] | 250 (≈ 595 µM) | 8 | 46.4 | 500 (≈ 1190 µM) | 5.3 | 500 (≈ 1190 µM) | 26.4 | 17 | 20.8 | 11.8 | 11.6 | 13.9 | 10 | 31.9 | 24.1 | 37.8 | 16.1 | 32.6 | 250 (≈ 595 µM) | 23.3
2 | COC(=O)Nc1nc2ccccc2[nH]1 [CARBENDAZIM] | 70 (≈ 366 µM) | 47.7 | 78.9 | 125 (≈ 654 µM) | 43.1 | 70 (≈ 366 µM) | 60.3 | 63 | 68.4 | 61.3 | 61.1 | 44.2 | 56.7 | 70.6 | 67.8 | 79 | 50.6 | 73.9 | 70 (≈ 366 µM) | 66.3
3 | CC(=O)O[C@@H]1C(C)(C)OC(=O)[C@@]12COc1ccc3c(=O)cc(-c4ccccc4)oc3c12 [ISOGLABRATEPHRIN] | 250 (≈ 595 µM) | 6.3 | 42.9 | 1000 (≈ 2380 µM) | 3.2 | 1000 (≈ 2380 µM) | 25.3 | 10.7 | 17 | 14.4 | 16.3 | 7.4 | 8.4 | 27.5 | 16.1 | 32.6 | 14.4 | 37 | 1000 (≈ 2380 µM) | 28.9
4 | COc1ccc2c(=O)cc(-c3ccccc3)oc2c1/C=C/C(C)(C)O [LANCEOLATIN-A] | 500 (≈ 1490 µM) | 8.4 | 32.6 | 1000 (≈ 2970 µM) | 3.3 | 500 (≈ 1490 µM) | 15.2 | 8.1 | 23.8 | 16.3 | 7.7 | 4.1 | 6.6 | 29.7 | 14.1 | 16 | 10 | 22.6 | 500 (≈ 1490 µM) | 10.7
5 | CC(=O)OC(C1COc2ccc3c(=O)cc(-c4ccccc4)oc3c21)C(C)(C)O (stereo not given) [TEPHROAPOLLIN-F] | 125 (≈ 317 µM) | 21.7 | 58.3 | 500 (≈ 1270 µM) | 11.9 | 250 (≈ 634 µM) | 31.9 | 23.3 | 45.1 | 26.1 | 24.6 | 18 | 16 | 51.7 | 32.8 | 46.5 | 23.3 | 40.3 | 250 (≈ 634 µM) | 36.3
